The results in this text go back to patent US20110034526A1, “Benzimidazole Compounds” (Wyeth LLC, priority 2007, published 2011).

Molecules are shown by their SMILES. pEC50, pIC50: −log10 of the molar value. Like-named read-outs stand apart in the source and are kept apart here.

For one experiment, the system named is ABCA1 gene. Put plainly: Quantitative analysis of ABCA1 gene regulation in THP-1 cells (real-time PCR). In kind it is cell-based, human. Particulars: read-out: EC50 ABCA1. Here is the method: The compounds of formula (I) effect on the regulation of the ABCA1 gene was evaluated using the following procedure.
The THP-1 monocytic cell line (ATCC # TIB-202) was obtained from American Type Culture Collection (Manassas, Va.) and cultured in RPMI 1640 medium (Gibco, Carlsbad, Calif.) containing 10% FBS, 2 mM L-glutamine, and 55 uM beta-Mercaptoethanol (BME). […] Differentiated THP-1 cells were treated with test compounds or ligands dissolved in DMSO (Sigma, D-8779) in culture medium lacking phorbal ester. […] Unstimulated cells treated with vehicle were included as negative controls on each plate. An LXR agonist reference, N-(2,2,2-trifluoro-ethyl)-N-[4-(2,2,2-trifluoro-1-hydroxy-1-trifluoromethyl-ethyl)-phenyl]-benzenesulfonamide (Schultz, Joshua R., Genes & Development (2000), 14(22), 2831-2838), was dosed at 1.0 uM and served as a positive control. […] Results of antagonist analysis are expressed as % antagonism and IC50 (in μM).
Total cellular RNA was isolated from treated cells cultured in 96-well plates using PrepStation 6100 (Applied Biosystems, Foster City, Calif.), according to the manufacturer's recommendations. RNA was resuspended in ribonuclease-free water and stored at −70° C. prior to analysis. RNA concentrations were quantitated with RiboGreen test procedure, #R-11490 (Molecular Probes, Eugene, Oreg.).
Gene-specific mRNA quantitation was performed by real-time PCR with the Perkin Elmer Corp. chemistry on an ABI Prism 7700 Sequence detection system (Applied Biosystems, Foster City, Calif.) according to the manufacturer's instructions. Samples (50-100 ng) of total RNA were assayed in duplicate or triplicate in 50 μl reactions using one-step RT-PCR and the standard curve method to estimate specific mRNA concentrations. Sequences of gene-specific primer and probe sets were designed with Primer Express Software (Applied Biosystems, Foster City, Calif.). […] RT and PCR reactions were performed according to PE Applied Biosystem's protocol for Taqman Gold RT-PCR or Qiagen's protocol for Quantitect probe RT-PCR. Relative levels of ABCA1 mRNA are normalized using GAPDH mRNA or 18S rRNA probe/primer sets purchased commercially (Applied Biosystems, Foster City, Calif.).
Mean, standard deviation and statistical significance of duplicate evaluations of RNA samples were assessed using ANOVA, one-way analysis of variance using SAS analysis.

The next experiment deals with T1, human LXRα (Homo sapiens, UniProt Q13133).
T1 construct: biotin (biotinylated); made in house; host or cells: E. coli (crude extract)
T1 sequence (Q13133 1-447): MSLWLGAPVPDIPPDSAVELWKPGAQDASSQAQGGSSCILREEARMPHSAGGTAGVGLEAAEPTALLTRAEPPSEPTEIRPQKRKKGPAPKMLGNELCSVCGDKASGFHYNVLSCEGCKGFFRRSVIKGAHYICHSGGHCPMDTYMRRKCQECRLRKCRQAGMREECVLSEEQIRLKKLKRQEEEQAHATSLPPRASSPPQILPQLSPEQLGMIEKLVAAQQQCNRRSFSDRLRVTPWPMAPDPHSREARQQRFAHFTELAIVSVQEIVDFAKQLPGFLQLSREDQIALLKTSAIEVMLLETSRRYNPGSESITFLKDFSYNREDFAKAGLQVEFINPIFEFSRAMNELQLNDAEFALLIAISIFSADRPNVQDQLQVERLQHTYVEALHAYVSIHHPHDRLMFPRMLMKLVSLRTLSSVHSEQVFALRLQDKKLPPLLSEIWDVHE
Put plainly: Ligand-binding test procedure for human LXRα (3H T0901317 tracer, flash plates). The note with it: biotinylated hLXRα, tracer 3H T0901317. On the procedure: Receptor source: E. coli extract from cells expressing biotinylated hLXRcc. Extract was made in a similar buffer as above, but with 50 mM TRIS.
Washed streptavidin and coated flash plates with wash buffer. Diluted receptor extract to give Bmax ˜4000 cpm and add to the wells. Wrapped the plates in aluminum foil and stored them at +4° C. over night.
(§1) Made a dilution series in DMSO of the test ligands. Made a 5 nM solution of the radioactive tracer in buffer. Mixed 250 μl diluted tracer with 5 μl of the test ligand from each concentration of the dilution series. Washed the receptor-coated flash plates. Added 200 μl per well of the ligand/radiolabel mixture to the receptor-coated flash plates. Wrapped the plates in aluminum foil and incubate at +4° C. over night.
Aspirated wells, and wash the flashed plates. Sealed the plate. Measured the remaining radioactivity in the plate.

Another experiment has as its target T2, human LXRβ (Homo sapiens, UniProt P55055).
T2 construct: biotin (biotinylated); made in house; host or cells: E. coli (crude extract)
T2 sequence (P55055 1-460): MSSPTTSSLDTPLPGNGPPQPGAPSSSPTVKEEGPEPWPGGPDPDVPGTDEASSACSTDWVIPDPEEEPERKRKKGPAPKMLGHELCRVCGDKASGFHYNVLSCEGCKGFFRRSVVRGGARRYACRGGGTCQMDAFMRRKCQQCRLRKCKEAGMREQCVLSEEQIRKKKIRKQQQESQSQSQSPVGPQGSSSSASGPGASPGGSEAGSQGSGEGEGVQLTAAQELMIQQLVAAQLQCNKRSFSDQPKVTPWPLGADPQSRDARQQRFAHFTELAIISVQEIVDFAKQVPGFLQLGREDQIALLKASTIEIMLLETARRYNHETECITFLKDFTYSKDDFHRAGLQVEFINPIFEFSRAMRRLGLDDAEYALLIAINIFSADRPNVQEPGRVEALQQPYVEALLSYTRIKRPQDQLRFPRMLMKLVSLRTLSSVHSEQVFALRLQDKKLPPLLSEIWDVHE
Put plainly: Ligand-binding test procedure for human LXRβ (3H T0901317 tracer, flash plates). Here is the method: Receptor source: E. coli extracted from cells expressing biotinylated hLXRβ. Extract was made in a similar buffer as above, but with 50 mM TRIS.
Washed streptavidin and coated flash plates with wash buffer. Diluted receptor extract to give Bmax ˜4000 cpm and add to the wells. Wrapped the plates in aluminum foil and stored them at +4° C. overnight.
as §1
Aspirated wells, and washed the flashed plates. Sealed the plate. Measured the remaining radioactivity in the plate.

The mark [1] stands for this setting: Gene regulation by LXR (Human), differentiated THP-1 cells, 18 hrs, ABCA1 mRNA.

Consider `CCS(=O)(=O)c1cccc(Oc2cccc(-n3c(C)nc4c(C(F)(F)F)cccc43)c2)c1` [Example 5, 1-{3-[3-(ethylsulfonyl)phenoxy]phenyl}-2-methyl-4-(trifluoromethyl)-1H-benzimidazole], for which the pEC50 in the experiment on ABCA1 gene (setting [1]) is 6.40.
On to `Cc1nc2c(C(F)(F)F)cccc2n1-c1cccc(Oc2cccc(S(=O)(=O)C(C)C)c2)c1` [Example 6, 1-{3-[3-(isopropylsulfonyl)phenoxy]phenyl}-2-methyl-4-(trifluoromethyl)-1H-benzimidazole], for which the pEC50 in the experiment with ABCA1 gene (setting [1]) is 6.15.
Still for that read-out and setting: in the case of `CCS(=O)(=O)c1cc(F)cc(Oc2cccc(-n3c(C)nc4c(C(F)(F)F)cccc43)c2)c1` [Example 7, 1-{3-[3-(ethylsulfonyl)-5-fluorophenoxy]phenyl}-2-methyl-4-(trifluoromethyl)-1H-benzimidazole] it was 5.91; in that of `Cc1nc2c(C(F)(F)F)cccc2n1-c1cccc(Oc2cc(F)cc(S(C)(=O)=O)c2)c1` [Example 8, 1-{3-[3-fluoro-5-(methylsulfonyl)phenoxy]phenyl}-2-methyl-4-(trifluoromethyl)-1H-benzimidazole], 6.37.
For `Cc1nc2c(C(F)(F)F)cccc2n1-c1cccc(Oc2cccc(S(=O)(=O)CCCO)c2)c1` [Example 9, 3-[(3-{3-[2-methyl-4-(trifluoromethyl)-1H-benzimidazol-1-yl]phenoxy}-phenyl)sulfonyl]propan-1-ol], the pEC50 in the experiment with ABCA1 gene (setting [1]) is 6.21.
Still for that read-out and setting: in the case of `CCCS(=O)(=O)c1cccc(Oc2cccc(-n3c(C)nc4c(C(F)(F)F)cccc43)c2)c1` [Example 10, 2-methyl-1-{3-[3-(propylsulfonyl)phenoxy]phenyl}-4-(trifluoromethyl)-1H-benzimidazole] it was 6.21; in that of `CS(=O)(=O)c1cccc(Oc2cccc(-n3cnc4c(C(F)(F)F)cccc43)c2)c1` [Example 25, 1-{3-[3-(methylsulfonyl)phenoxy]phenyl}-4-(trifluoromethyl)-1H-benzimidazole], 6.04; in that of `CCc1nc2c(C(F)(F)F)cccc2n1-c1cccc(Oc2cccc(S(C)(=O)=O)c2)c1` [Example 26, 2-ethyl-1-{3-[3-(methylsulfonyl)phenoxy]phenyl}-4-(trifluoromethyl)-1H-benzimidazole], 6.85.
As to `CCCc1nc2c(C(F)(F)F)cccc2n1-c1cccc(Oc2cccc(S(C)(=O)=O)c2)c1` [Example 27, 1-{3-[3-(methylsulfonyl)phenoxy]phenyl}-2-propyl-4-(trifluoromethyl)-1H-benzimidazole], in the experiment on ABCA1 gene (setting [1]), the pEC50 was 7.66. Also, the pIC50 at human LXRα was 8.41; on human LXRβ, 9.05.
Turning to `CS(=O)(=O)c1cccc(Oc2cccc(-n3c(-c4ccccc4)nc4c(C(F)(F)F)cccc43)c2)c1` [Example 30, 1-{3-[3-(methylsulfonyl)phenoxy]phenyl}-2-phenyl-4-(trifluoromethyl)-1H-benzimidazole], the pEC50 in the experiment on ABCA1 gene (setting [1]) was 6.80.
As for `CS(=O)(=O)c1cccc(Oc2cccc(-n3c(C4CC4)nc4c(C(F)(F)F)cccc43)c2)c1` [Example 31, 2-cyclopropyl-1-{3-[3-(methylsulfonyl)phenoxy]phenyl}-4-(trifluoromethyl)-1H-benzimidazole], the pEC50 in the experiment with ABCA1 gene (setting [1]) was 6.12.
Consider `CS(=O)(=O)c1cccc(Oc2cccc(-n3c(C(F)F)nc4c(C(F)(F)F)cccc43)c2)c1` [Example 33, 2-(difluoromethyl)-1-{3-[3-(methylsulfonyl)phenoxy]phenyl}-4-(trifluoromethyl)-1H-benzimidazole], for which, in the experiment on ABCA1 gene (setting [1]), the pEC50 is 6.72. The negative-log IC50 (pIC50) is 7.44 on human LXRα and 8.70 on human LXRβ.
Consider `Cc1nc2c(C(F)(F)F)cccc2n1-c1cccc(Oc2cccc(S(=O)(=O)CCCN)c2)c1` [Example 37, 3-[(3-{3-[2-methyl-4-(trifluoromethyl)-1H-benzimidazol-1-yl]phenoxy}phenyl)sulfonyl]propan-1-amine], for which, in the experiment with ABCA1 gene (setting [1]), the pEC50 is 5.33. Besides, the pIC50 is 5.83 on human LXRα and 7.39 on human LXRβ.
In the same order, the values of `Cc1nc2c(C(F)(F)F)cccc2n1-c1cccc(Oc2cccc(S(=O)(=O)C3CC3)c2)c1` [Example 38, 1-{3-[3-(cyclopropylsulfonyl)phenoxy]phenyl}-2-methyl-4-(trifluoromethyl)-1H-benzimidazole] are 6.19, 6.85 and 8.24.
For `Cc1nc2c(Cl)cccc2n1-c1cccc(Oc2cccc(S(C)(=O)=O)c2)c1` [Example 40, 4-chloro-2-methyl-1-{3-[3-(methylsulfonyl)phenoxy]phenyl}-1H-benzimidazole], the pEC50 in the experiment with ABCA1 gene (setting [1]) is 6.50.
In the case of `CCS(=O)(=O)c1cccc(Oc2cccc(-n3c(C)nc4c(Cl)cccc43)c2)c1` [Example 41, 4-chloro-1-{3-[3-(ethylsulfonyl)phenoxy]phenyl}-2-methyl-1H-benzimidazole], in the experiment with ABCA1 gene (setting [1]), the pEC50 is 6.13.
For the compound `Cc1nc2c(Cl)cccc2n1-c1cccc(Oc2cccc(S(=O)(=O)C(F)(F)F)c2)c1` [Example 47, 4-chloro-2-methyl-1-(3-{3-[(trifluoromethyl)sulfonyl]phenoxy}phenyl)-1H-benzimidazole], in the experiment with ABCA1 gene (setting [1]), the pEC50 was 6.67.
With `Cc1nc2c(Cl)cccc2n1-c1cccc(Oc2ccc(S(C)(=O)=O)cc2)c1` [Example 48, 4-chloro-2-methyl-1-{3-[4-(methylsulfonyl)phenoxy]phenyl}-1H-benzimidazole], the pEC50 in the experiment with ABCA1 gene (Homo sapiens, THP-1, 18 h) was 5.95. In addition, the values for the pIC50 on human LXRα and on human LXRβ were 7.19 and 8.22, respectively.
Consider `CCS(=O)(=O)c1cccc(Oc2ccc(-n3c(C)nc4c(C(F)(F)F)cccc43)cc2)c1` [Example 65, 1-{4-[3-(ethylsulfonyl)phenoxy]phenyl}-2-methyl-4-(trifluoromethyl)-1H-benzimidazole], for which the pEC50 with ABCA1 gene (setting [1]) is 6.45. In addition, the values for the negative-log IC50 (pIC50) at human LXRα and at human LXRβ were 8.14 and 8.89, respectively.
On the same counts, the results for `Cc1nc2c(C(F)(F)F)cccc2n1-c1ccc(Oc2cc(F)cc(S(C)(=O)=O)c2)cc1` [Example 66, 1-{4-[3-fluoro-5-(methylsulfonyl)phenoxy]phenyl}-2-methyl-4-(trifluoromethyl)-1H-benzimidazole] are 6.45, 6.58 and 7.29.
